Converted amounts (≈) assume the structure as drawn. Like-named read-outs stand apart in the source and are kept apart here.

What is called MIC is the lowest concentration that inhibits growth of the organism. The term zone of inhibition denotes the size of the clear area around the sample on an inoculated plate. In general, viability refers to a read-out of living cells in per cent, often relative to untreated cells.

One data set deals with CRE strains. The conditions noted are these: cited from earlier work.
In data set [1] the test system is K. pneumoniae 81 KPC-3-positive. In words: checkerboard microdilution, antibiotic plus tested agent. The note with it: Klebsiella pneumoniae. It is filed as cell-based, Klebsiella pneumoniae. The protocol:
(§1) To examine the ability of tested agents to inhibit various carbapenemases and AmpC-enzymes, their synergy with antibiotics against β-lactamase-producing strains was assessed by checkerboard microdilution assay, with slight modification. Checkerboards were prepared in microtiter plates, with seven two-fold dilutions of β-lactams (1–64 mg/L) in the rows and three two-fold dilutions of tested agents and PBA (4–16 mg/L) in the columns. Tested agents’ concentrations were limited to the concentrations at which the newest commercially available BLIs (vaborbactam, relebactam, and avibactam) are used in susceptibility testing. Plates were inoculated and incubated as in the MIC microdilution assay. Parallel, MICs of tested agents and PBA alone were determined by the microdilution assay. Following the incubation, antibiotic MICs in the presence of each agent’s concentration were determined. Moreover, for the first well without growth found in each checkerboard row and column along the growth/non-growth interface, the fractional inhibitory concentration index (FICI) was calculated using the formula below:FICI = [(MIC of antibiotic in combination)/(MIC of antibiotic alone)] + [(MIC of the tested agent in combination)/(MIC of tested agent alone)].
(§2) For calculations, all off-scale MICs were converted to the next-highest doubling concentration. Subsequently, both the average and the lowest FICI were interpreted. The interpretation was as follows: FICI ≤ 0.5, synergy; 0.5 < FICI ≤ 4, indifference and FICI > 4, antagonism. Primarily, examined combinations consisted of meropenem (Pol-Aura, Morag, Poland) plus tested agents against carbapenemases-producing strains and ceftazidime (Pol-Aura, Morag, Poland) plus tested agents against AmpC-producing strains. For agents that reduced meropenem MIC at least 4-fold for at least two tested strains, similar assays were performed with imipenem (Pol-Aura, Morag, Poland) and ertapenem (Pol-Aura, Morag, Poland).
A general note: Broth dilution looks for growth in wells or tubes with falling amounts of substance.

For data set [2], the system named is K. pneumoniae 83 KPC-3-positive, CTX-M-3-positive. Described as above. The conditions noted are these: Klebsiella pneumoniae. It is filed as cell-based, Klebsiella pneumoniae. The protocol: as §1, §2
The subject of data set [3] is K. pneumoniae ATCC BAA-1705 KPC-2-positive. The data set is described as above. The conditions noted are these: Klebsiella pneumoniae, ATCCBAA1705. It is filed as cell-based, Klebsiella pneumoniae. The protocol:
as §1, §2

In data set [4] the test system is K. pneumoniae ATCC BAA 1705 KPC-2-positive. Description: combination disc test CDT-KPC. The class given is cell-based. The note with it: Klebsiella pneumoniae, BAA1705; meropenem 10 µg per disc, 6 mm disc; read-out: Diameter of inhibition zone, MEM-10 disc without agent.
Data set [5] concerns E. coli 76 KPC-2-positive. Description: checkerboard microdilution, antibiotic plus tested agent. The class given is cell-based, Escherichia coli. The conditions noted are these: Escherichia coli. The protocol: as §1, §2
Data set [6] relates to P. aeruginosa 1204 VIM(+). Described as above. It is filed as cell-based. The note with it: Pseudomonas aeruginosa; read-out: MIC of meropenem alone. The protocol:
as §1
For calculations, all off-scale MICs were converted to the next-highest doubling concentration. […]

In data set [7] the test system is E. coli 82 TR(pl 81), transformant carrying blaKPC-3. Description: whole cell assay, meropenem MIC with tested agent. It is filed as cell-based, Escherichia coli. The note with it: Escherichia coli, read-out: MIC of meropenem alone. As for the experimental part:
as §1

A further data set has as its system E. coli DH5α. In words: whole cell assay, meropenem MIC with tested agent. The class given is cell-based, Escherichia coli. The note with it: Escherichia coli; read-out: MIC of meropenem alone. The protocol: as §1
In data set [8] the test system is S. aureus ATCC 43300 MRSA. Description: direct antimicrobial activity (disc-diffusion, MIC, MBC). It is filed as cell-based. The conditions noted are these: Staphylococcus aureus. Summed up: (§3)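 Susceptibility endpoints: inhibition zones (0.4 mg per disc), MIC, MBC for bacteria, MFC for yeasts. Compounds were solubilised in DMSO; nitrofurantoin, linezolid or fluconazole served as comparators per organism type.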

For data set [9], the system named is S. epidermidis ATCC 12228. The description is as above. The note with it: Staphylococcus epidermidis, ATCC12228. It is filed as cell-based. Summed up: as §3
In another data set the test system is E. faecalis ATCC 29212. Described as above. It is filed as cell-based. The conditions noted are these: Enterococcus faecalis, ATCC29212. Summed up:
as §3

The next data set concerns E. faecium ATCC 6057. The data set is described as above. The class given is cell-based. The note with it: Enterococcus faecium, ATCC6057. Summed up:
as §3

The test system of another data set is S. aureus ATCC 6538P. Described as above. The note with it: Staphylococcus aureus, ATCC6538P. The class given is cell-based. Summed up:
as §3

Another data set relates to C. albicans ATCC 90028. In words: antifungal activity (disc-diffusion, MIC, MFC). The class given is cell-based. The note with it: Candida albicans, ATCC90028. Summed up: as §3
The next data set has as its system C. tropicalis ATCC 750. In words: antifungal activity (disc-diffusion, MIC, MFC). It is filed as cell-based. The conditions noted are these: Candida tropicalis, ATCC750. Summed up: as §3
The subject of the next data set is C. tropicalis IBA 171. In words: antifungal activity (disc-diffusion, MIC, MFC). The class given is cell-based. The conditions noted are these: Candida tropicalis, IBA171. Summed up: as §3
For orientation: In agar diffusion tests the substance spreads into inoculated agar from a disc or well.

A further data set concerns S. cerevisiae ATCC 9763. Description: antifungal activity (disc-diffusion, MIC, MFC). The class given is cell-based. The conditions noted are these: Saccharomyces cerevisiae, ATCC9763. Summed up:
as §3

Data set [10] has as its system Gram-negative rods (except P. aeruginosa). Description: direct antimicrobial activity, MIC. It is filed as cell-based. The protocol:
(§4) Direct antimicrobial activity against Gram-negative and Gram-positive bacterial strains, as well as against yeast, was examined as previously described by the disc-diffusion test, the MIC determination assay, the MBC (for bacteria), and the MFC (for yeasts) determination tests. All the above-mentioned tests were performed according to EUCAST [71, 72] and CLSI [73, 74, 75, 76, 77] recommendations. The following reference agents were used: nitrofurantoin (for Gram-negative rods), linezolid (for Gram-positive bacteria), and fluconazole (in the case of fungi). The new aromatic diboronic acids were dissolved in DMSO (Sigma, St. Louis, MO, USA). In the disc-diffusion test, the concentration of new agents was 0.4 mg per disc.

A further data set deals with B. subtilis ATCC 6633. In words: direct antimicrobial activity (disc-diffusion). It is filed as cell-based. The note with it: Bacillus subtilis, ATCC6633; 0.4 mg per disc, 9 mm disc (linezolid 0.03 mg, 6 mm disc); - no zone; read-out: Diameter of inhibition zone. As for the experimental part: as §4
For data set [11], the system named is C. parapsilosis ATCC 22019. In words: antifungal activity (disc-diffusion, MIC, MFC). The note with it: Lodderomyces parapsilosis, ATCC22019. It is filed as cell-based, Candida parapsilosis. Summed up: as §3
The next data set has as its system Gram-positive strains. Description: direct antimicrobial activity, MIC. The class given is cell-based. As for the experimental part: as §4, with “disc. Depending on the solubility, the MIC and MBC/MFC values were determined up to 100 mg/L for 1k, up to 200 mg/L for 7c, and up to 400 mg/L for the remaining compounds: 1a–1j, 2a–2g, 3a–3f, 4a–4b, 5a–5c, 6a and 7a–7b.” for “disc.”

In a further data set the test system is C. krusei ATCC 6258. In words: antifungal activity (disc-diffusion, MIC, MFC). The class given is cell-based, Candida krusei. The note with it: Pichia kudriavzevii, ATCC6258. Summed up: as §3
In data set [12] the test system is C. guilliermondii IBA 155. In words: antifungal activity (disc-diffusion, MIC, MFC). The class given is cell-based, Candida guilliermondii. The note with it: Meyerozyma guilliermondii, IBA155. Summed up: as §3
A short description of data set [13]: MTT-based viability assay. The class given is cell-based. The note with it: human, MRC-5 human fibroblasts, 72 h, read-out: Viability of MRC-5 cells (% of viable cells ± SD). Summed up: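 Percent viable cells relative to control, measured in triplicate by MTT read-out at 570 nm. Cells: MRC-5 human fibroblasts cultured at 37 °C, 5% CO2 in MEME plus 10% FBS.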

Data set [14] relates to P. aeruginosa MUW 700 AmpC(+). Description: screening test of direct antimicrobial activity (STDA), disc-diffusion. The class given is cell-based. The note with it: Pseudomonas aeruginosa; 0.3 mg per disc; - no zone; read-out: Diameter of inhibition zone around disc with tested agent. The protocol:
(§5) Prior to combination disc tests, screening tests of direct antimicrobial activity (STDA) of the tested agent against β-lactamase-producing strains were performed by the disc-diffusion method. Discs with 0.3 mg, 0.1 mg, and 0.03 mg of each agent were examined. The highest amount of an agent that caused no effect on bacterial growth was used in further experiments.

Data set [15] deals with K. pneumoniae ATCC 700603 ESBL(+). The data set is described as above. The conditions noted are these: Klebsiella pneumoniae, ATCC700603; 0.3 mg per disc; - no zone; read-out: Diameter of inhibition zone around disc with tested agent. The class given is cell-based. As for the experimental part: as §5
The test system of the next data set is KPC producers. Description: microdilution with carbapenems. The class given is cell-based. The conditions noted are these: strains used in this study. The protocol: as §1, §2
Setting [16] is: read-out: MIC of meropenem alone.
[17] abbreviates: 0.4 mg per disc, 9 mm disc (linezolid 0.03 mg, 6 mm disc), - no zone, read-out: Diameter of inhibition zone.
The mark [18] stands for this setting: 0.4 mg per disc, 9 mm disc (fluconazole 0.025 mg, 6 mm disc), - no zone, read-out: Diameter of inhibition zone.
[19] abbreviates: read-out: MIC of ertapenem alone.

Take `O=C(O)c1c(F)ccc2c1OB(O)[C@@H]1C[C@H]21` [xeruborbactam]: the MIC in the data set on CRE strains is 16 µg/mL (≈ 72.1 µM).

Consider `C[C@@H](O)[C@H]1C(=O)N2C(C(=O)O)=C(S[C@@H]3CN[C@H](C(=O)N(C)C)C3)[C@H](C)[C@H]12` [MEM, meropenem, reference compound], for which the MIC in data set [1] (setting [16]) was 16 µg/mL; in data set [2] (setting [16]), 32 µg/mL; in [3] (setting [16]) it was 32 µg/mL; in [5] (setting [16]) it was 64 µg/mL; in [6], 64 µg/mL; in data set [7], 2 µg/mL. The MIC in the data set with E. coli DH5α was 0.016 µg/mL. The zone of inhibition at 10 µg/disc in data set [4] amounted to 6 mm.

In the case of `OB(O)c1cc(I)c(B(O)O)cc1I` [1j], the MIC in data set [8] was determined as 50 µg/mL (≈ 120 µM); in data set [9], 50 µg/mL (≈ 120 µM); in the data set with E. faecalis ATCC 29212, 400 µg/mL (≈ 958 µM); with E. faecium ATCC 6057, 400 µg/mL (≈ 958 µM); against S. aureus ATCC 6538P, 50 µg/mL (≈ 120 µM); against C. albicans ATCC 90028 (fluconazole by Etest), 200 µg/mL (≈ 479 µM). For the same molecule, the MIC was more than 400 µg/mL against C. tropicalis ATCC 750 (fluconazole by Etest); more than 400 µg/mL in the data set with C. tropicalis IBA 171 (fluconazole by Etest); more than 400 µg/mL against S. cerevisiae ATCC 9763 (fluconazole by Etest); 50 to 400 µg/mL (≈ 120 to 958 µM) in data set [10]; more than 400 µg/mL in [11] (fluconazole by Etest); 100 to 400 µg/mL (≈ 239 to 958 µM) in the data set on Gram-positive strains (enterococci). Further, the MIC was 12.5 to 50 µg/mL (≈ 29.9 to 120 µM) in the data set on Gram-positive strains (staphylococci), 400 µg/mL (≈ 958 µM) against C. krusei ATCC 6258 (fluconazole by Etest) and 400 µg/mL (≈ 958 µM) in data set [12] (fluconazole by Etest). The zone of inhibition at 0.4 mg/disc in data set [8] (setting [17]) is 21 mm; in [9] (setting [17]), 25 mm; in the data set with S. aureus ATCC 6538P (setting [17]) it was 19 mm; in the data set on C. albicans ATCC 90028 (setting [18]), 24 mm; with C. tropicalis ATCC 750 (setting [18]) it was 17 mm; in the data set with C. tropicalis IBA 171 (setting [18]), 15 mm. In addition, the zone of inhibition at 0.4 mg/disc in the data set on S. cerevisiae ATCC 9763 (setting [18]) was found to be 20 mm; in the data set with B. subtilis ATCC 6633 it was 20 mm; in data set [11] (setting [18]), 15 mm; with C. krusei ATCC 6258 (setting [18]) it was 23 mm; in data set [12] (setting [18]), 30 mm. The viability at 72 h, 12.5 mg/L in data set [13] (12.5 mg/L) turned out to be 125 ± 2.8%. Also, in [13] (25 mg/L), the viability at 72 h, 25 mg/L is 117 ± 1.2%. Besides, the viability at 72 h, 50 mg/L in [13] (50 mg/L) was determined as 88.6 ± 3.5%. Moreover, the zone of inhibition at 300 µg/disc in data set [14] worked out at 14 mm; in data set [15], 11 mm.

Regarding `C[C@@H](O)[C@H]1C(=O)N2C(C(=O)O)=C(S[C@@H]3CN[C@H](C(=O)Nc4cccc(C(=O)O)c4)C3)[C@H](C)[C@H]12` [ERT, ertapenem, reference compound], the MIC stood at 32 µg/mL in data set [1] (setting [19]), 64 µg/mL in data set [2] (setting [19]), 64 µg/mL in data set [3] (setting [19]) and 256 µg/mL in data set [5] (setting [19]). Also, in the data set on KPC producers, the “MIC range of ertapenem alone” value was in the range of 32 to 256 µg/mL.

The record behind these values is PMC10648349, “Aromatic Diboronic Acids as Effective KPC/AmpC Inhibitors” (Molecules, 2023).
